Experimental data: patent US20260284020A1, “LATS KINASE INHIBITOR TO TREAT RETINAL DEGENERATION” (Children's Hospital Los Angeles, priority 2023, published 2026)
“Also recorded” adds a separate entry of the source. Where two headings read alike, the source gives them in different places.

Legend:
[1] = system: primary human fetal RPE monolayers; experiment: In vitro cell proliferation (EdU+ cells) in RPE monolayers; format: cell-based; details: for percentage of EdU+ cells / EdU+ cells compared to DMSO in the absence of injury (in words): 96 hours; for percentage of EdU+ cells: 1 μM, mean±SE; for EdU+ cells compared to DMSO in the absence of injury (in words): uninjured monolayers
Protocol: Following 72-hour acclimation period, RPE monolayers were then subjected to a controlled horizontal scratch using the WoundMaker Tool™ (Essen BioScience Ltd., Welwyn Garden City, United Kingdom) according to the protocol provided by the manufacturer. Wells were subsequently washed 1-2 times with their respective media in order to remove cell debris. Cells were then treated with either 1 μM DMSO (as control) or 1 μM TDI-011536 dissolved in either FBS-containing or FBS-free media. To label and track proliferating cells, cells were incubated with 10 μM 5-Ethynyl-2′-deoxyuridine (EdU) for 96 hours.
Ninety-six hours after the scratch, cells were immediately fixed with 4% paraformaldehyde (PFA) in phosphate-buffered saline (PBS) for 15 minutes at room temperature (RT). Cells were washed three times with PBS in between each step. Following fixation, cells were blocked and permeabilized with 3% bovine serum albumin (BSA) and 0.1% Triton X-100 in PBS for 2 hours at RT. Cells were then incubated with an EdU reaction cocktail according to the manufacturer's instructions for 30 minutes at RT, protected from light. Then, cells were incubated overnight with primary antibodies diluted in 3% BSA in PBS. The following morning, cells were incubated with secondary antibodies diluted in 3% BSA in PBS for 2 hours at RT, protected from light. Cells were counterstained with DAPI and then washed. A list of reagents and dilutions used can be found in Table 1.
Regions measuring 800 μm^2 at various distances from the scratch within each well were analyzed. In uninjured wells, three regions were randomly selected within each well. In scratched wells, three regions were centered within the original scratch area (scratch region), which was determined by overlaying the brightfield image taken immediately post-scratch over the fluorescence images 96 hours post-scratch. Another three regions were selected immediately adjacent to the original scratch area but not within it (proximal region). Finally, three additional regions at least 800 μm from the original scratch area were selected (distal region). Apart from scratch regions, only regions that were intact and confluent immediately post-scratch were analyzed. Regions with significant cell loss or those that were otherwise not confluent following the scratch were excluded from analysis.
Within each region, cell proliferation was quantified by dividing EdU/DAPI doubly positive cells by the total number of DAPI+ cells, expressed as a percentage. PAX6 expression was quantified as the ratio of PAX6+ nuclei among EdU/DAPI doubly positive nuclei, also expressed as a percentage.
To assess the effect of Lats kinase inhibition on cell proliferation in the absence of injury, RPE monolayers were incubated with EdU for 96 hours with the addition of LKI or DMSO. Cell proliferation was quantified as the percentage of EdU+ cells within 3 randomly selected regions within each well.
To assess whether Lats kinase inhibition accelerates wound healing via RPE proliferation in vitro, and the mechanism of wound closure with Lats kinase inhibition, RPE monolayers were incubated with EdU following the initial scratch and remained exposed to EdU for 96 hours. At 96 hours, cells were fixed and stained for various cell markers. The percentage of EdU+ cells within scratch, proximal, and distal regions was recorded (FIG. 2A).

[2] = system: RPE injury by laser photocoagulation in Dutch-belted rabbits; experiment: In vivo laser injury model: fundus photos and OCT imaging; set-up: species or system rabbit; details: listed as LKI; for OCT appearance of RPE layer at laser spots compared to control / pigmentation of laser spots on fundus photos compared to control: intravitreal 50 μL of 15 mM
Text: Laser photocoagulation was used as a model for RPE injury in vivo. Prior to laser photocoagulation, Dutch-belted rabbits were sedated with ketamine and xylazine. Eyes were anesthetized with topical proparacaine and dilated with phenylephrine and tropicamide. Lubricating drops and gel were applied to prevent desiccation of the cornea.
To evaluate the effect of LATS kinase inhibition on the RPE injury response in vivo, following sedation and pharmacologic dilation, laser photocoagulation was delivered in a 6×6 grid pattern to both eyes with a 532 nm green laser (Iridex Corporation, Mountain View, CA, USA) mounted on an indirect ophthalmoscope. Power was set to 170 mW and pulse duration was set to 40 ms. Following the laser procedure, fundus photos of both eyes were obtained using a 28-diopter lens and smartphone. OCT images of both eyes were obtained on a SPECTRALIS (Heidelberg Engineering, Heidelberg, Germany) imaging system. Fundus photos and OCT images were again obtained at 1- and 4-week time points.
Dutch-belted rabbits were sedated and underwent photocoagulation of both eyes as described above, with the exception of lesion intensity alteration. Instead, laser power was held at 170 mW and pulse duration remained at 40 ms.
Following the laser procedure, the eyes were anesthetized once more with topical proparacaine. Povidone-iodine was applied to the conjunctiva or sclera using sterile Q-tips. Either 50 μL of 15 mM LATS kinase inhibitor (LKI), or vehicle control, was injected per eye using 1 mL Luer-lock syringe with a 27G 1½ inch needle. The second generation LKI, TDI-011536, was used as a micro-suspension formulation prepared in phosphate buffer solution (PBS; Sigma) supplemented with 0.5% carboxymethyl cellulose (Sigma) and 0.5% Kolliphor P 188 Bio (BASF Pharma). Intravitreal injections containing LKI were administered in the right eye and control injections were administered in the left eye. Injections were administered 1-2 mm posterior to the superotemporal or superonasal limbus and delivery of each compound was confirmed on indirect ophthalmoscopy.
To evaluate the effect of Lats kinase inhibition on the RPE injury response in vivo, 17 Dutch-belted rabbits received photocoagulation procedure to cause focal disruptions of the RPE and photoreceptor layers in a 6×6 grid of laser spots. Following photocoagulation, each animal received an intravitreal injection of 50 μL of 15 mM LKI in the right eye ([…]) and 50 μL vehicle in the left eye (n=17 eyes). Fundus photos and OCT imaging were performed immediately following the laser procedure and at 1- and 4-week time points. Three independent experiments were performed.

RPE monolayers = experiment: Toxic effects in vitro; format: cell-based, human
[3] = proximal regions, FBS-free media
[4] = scratch regions, FBS-free media

Q: How did the “percentage of EdU+ cells in monolayers not subjected to injury (in words)” value ([1]; discussion, media not stated) turn out when O=C(/N=c1\scc(CO)n1Cc1ccccc1)c1c[nH]c2ncccc12 [TDI-011536] was run?
A: only a modest increase

Q: What about the “percentage of EdU+ cells” value ([1]; distal regions, FBS-free media) of the same compound?
A: 3.20±0.48%

Q: And the “difference in percentage of EdU+ cells, LKI vs control” value (“difference in percentage” for short) ([1]; distal regions, FBS-free media)?
A: 0.91±0.62%

Q: What about the “percentage of EdU+ cells compared to control (in words)” value (“percentage … to control (in words)” for short) ([1]; distal regions, FBS-free media) of the same compound?
A: no significant difference

Q: And the “percentage of EdU+ cells” value [1, 3]?
A: 10.25±1.30%

Q: And the “difference in percentage” value [1, 3]?
A: 7.36±1.38%

Q: And the “percentage … to control (in words)” value [1, 3]?
A: significantly higher percentage of EdU+ cells

Q: And the “percentage of EdU+ cells” value [1, 4]?
A: 40.11±2.07%

Q: And the “difference in percentage” value [1, 4]?
A: 6.88±2.80%

Q: What about the “percentage … to control (in words)” value [1, 4] of the same compound?
A: significantly higher percentage of EdU+ cells

Q: And the “percentage … to control (in words)” value ([1]; scratched monolayers, FBS-containing media)?
A: significantly higher percentage of EdU+ cells at the scratch site and proximal areas but not distal areas

Q: And the “EdU+ cells compared to DMSO in the absence of injury (in words)” value ([1]; FBS-containing media)?
A: significantly more EdU+ cells

Q: And the “EdU+ cells compared to DMSO in the absence of injury (in words)” value ([1]; FBS-free media)?
A: significantly more EdU+ cells

Q: What about the “OCT appearance of RPE layer at laser spots compared to control” value ([2]; 1 week after laser) of the same compound?
A: thickening of the RPE layer with associated shadowing; also recorded: Shadowing (*) was common; also recorded: appeared thicker with increased shadowing

Q: What about the “pigmentation of laser spots on fundus photos compared to control” value ([2]; 1 week after laser) of the same compound?
A: hyperpigmentation of laser spots; also recorded: increased pigmentation

Q: And the “OCT appearance of RPE layer at laser spots compared to control” value ([2]; 4 weeks after laser)?
A: more pronounced; also recorded: Shadowing (*) was common; also recorded: significantly increased thickness of the RPE layer

Q: And the “pigmentation of laser spots on fundus photos compared to control” value ([2]; 4 weeks after laser)?
A: more pronounced; also recorded: robust increase in pigmentation

Q: And the “persistence of LKI microsuspension (depot) in the eye” value ([2]; rabbit eye, intravitreal 50 μL of 15 mM microsuspension)?
A: visible after 1 week; also recorded: up to a month

Q: And the “toxic effects in vitro” value (RPE monolayers)?
A: No toxic effects

Q: What about the “toxic effects in vitro” value (RPE monolayers; listed as LKI) of the same compound?
A: no toxic effects
